Measured values reported in patent US8003785B2 (Takeda Pharmaceutical Company Limited, priority 2008, dated 2011).

Target: T1, PLK1 (Homo sapiens, UniProt P53350)
T1 construct: Full-length, active GST-PLK1 is purified from Sf9 insect cells; made in house; host or cells: Sf9 insect cells
Assay: Biochemical Characterization Assay: HTRF kinase assay, GST-PLK1 phosphorylation of GST-p53
Details: GST-PLK1, GST-p53 substrate
Method in brief: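 HTRF read-out of p53 phosphorylation: after EDTA stop, anti-phospho-p53 antibody bound 30 min at 37 °C in HEPES pH 7 buffer, with Eu-anti-rabbit/APC-anti-GST detection. Kinase step used full-length Sf9-expressed GST-PLK1 (3 ug/mL) and E. coli GST-p53 substrate, 35 min at 37 °C.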

T1 sequence (P53350 whole entry): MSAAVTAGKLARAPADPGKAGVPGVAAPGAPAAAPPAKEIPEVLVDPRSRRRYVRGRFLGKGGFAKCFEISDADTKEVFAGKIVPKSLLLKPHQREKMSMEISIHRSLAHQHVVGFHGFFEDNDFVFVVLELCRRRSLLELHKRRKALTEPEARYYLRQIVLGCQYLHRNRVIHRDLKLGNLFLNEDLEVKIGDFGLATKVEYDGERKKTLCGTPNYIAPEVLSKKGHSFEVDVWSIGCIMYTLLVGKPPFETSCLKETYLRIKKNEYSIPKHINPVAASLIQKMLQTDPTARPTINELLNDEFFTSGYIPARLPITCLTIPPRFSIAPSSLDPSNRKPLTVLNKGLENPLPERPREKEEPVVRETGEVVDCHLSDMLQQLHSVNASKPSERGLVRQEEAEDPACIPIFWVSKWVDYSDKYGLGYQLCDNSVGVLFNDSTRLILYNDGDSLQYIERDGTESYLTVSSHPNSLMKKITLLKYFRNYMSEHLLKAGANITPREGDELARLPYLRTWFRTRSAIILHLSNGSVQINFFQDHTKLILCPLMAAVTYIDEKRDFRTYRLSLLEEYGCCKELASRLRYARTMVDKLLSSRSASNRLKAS

CN1C(=O)C(F)(F)CN(C2CCCC2)c2nc(Nc3ccc(C(N)=O)cc3F)ncc21 [Example I-231, 4-(9-cyclopentyl-7,7-difluoro-5-methyl-6-oxo-6,7,8,9-tetrahydro-5H-pyrimido[4,5-b][1,4]diazepin-2-ylamino)-3-fluoro-benzamide] and CN1C(=O)C(F)(F)CN(C2CCCCC2)c2nc(Nc3ccc(C(N)=O)cc3)ncc21 [Example I-257, 4-(9-cyclohexyl-7,7-difluoro-5-methyl-6-oxo-6,7,8,9-tetrahydro-5H-pyrimido[4,5-b][1,4]diazepin-2-ylamino)-benzamide] fall in the same range of IC50: 1 to 50 nM for the first, 1 to 50 nM for the second.

First: CNC(=O)c1ccc(Nc2ncc3c(n2)N(CCc2ccccc2)CC(F)(F)C(=O)N3C)c(OC)c1 [Example I-278, 4-(7,7-difluoro-5-methyl-6-oxo-9-phenethyl-6,7,8,9-tetrahydro-5H-pyrimido[4,5-b][1,4]diazepin-2-ylamino)-3-methoxy-N-methyl-benzamide]
Second: COc1cc(C(N)=O)ccc1Nc1ncc2c(n1)N(C(C)C)CC(F)(F)C(=O)N2C [Example I-294, 4-(7,7-difluoro-9-isopropyl-5-methyl-6-oxo-6,7,8,9-tetrahydro-5H-pyrimido[4,5-b][1,4]diazepin-2-ylamino)-3-methoxy-benzamide]
The IC50 of the first is higher: 51 to 500 nM for the first, 1 to 50 nM for the second. The second is the more potent here.

CN1CCC(NC(=O)c2ccc(Nc3ncc4c(n3)N(C3CCCCC3)CC(F)(F)C(=O)N4C)cc2)CC1 [Example I-262, 4-(9-cyclohexyl-7,7-difluoro-5-methyl-6-oxo-6,7,8,9-tetrahydro-5H-pyrimido[4,5-b][1,4]diazepin-2-ylamino)-N-(1-methyl-piperidin-4-yl)-benzamide] and CN(C)CCNC(=O)c1ccc(Nc2ncc3c(n2)N(C2CCCCC2)CC(F)(F)C(=O)N3C)cc1 [Example I-264, 4-(9-cyclohexyl-7,7-difluoro-5-methyl-6-oxo-6,7,8,9-tetrahydro-5H-pyrimido[4,5-b][1,4]diazepin-2-ylamino)-N-(2-dimethylamino-ethyl)-benzamide] fall in the same range of IC50: 1 to 50 nM for the first, 1 to 50 nM for the second.

CN1C(=O)C(F)(F)CN(C2CCCC2)c2nc(Nc3ccc(C(=O)NC4CCN(C(=O)OC(C)(C)C)CC4)cc3F)ncc21 [Example I-229, 4-[4-(9-cyclopentyl-7,7-difluoro-5-methyl-6-oxo-6,7,8,9-tetrahydro-5H-pyrimido[4,5-b][1,4]diazepin-2-ylamino)-3-fluoro-benzoylamino]-piperidine-1-carboxylic acid tert-butyl ester] and Cc1cc(C(=O)NC2CCNCC2)ccc1Nc1ncc2c(n1)N(C1CCCC1)CC(F)(F)C(=O)N2C [Example I-192, 4-(9-cyclopentyl-7,7-difluoro-5-methyl-6-oxo-6,7,8,9-tetrahydro-5H-pyrimido[4,5-b][1,4]diazepin-2-ylamino)-3-methyl-N-piperidin-4-yl-benzamide] fall in the same range of IC50: 1 to 50 nM for the first, 1 to 50 nM for the second.

CN(C)CCCNC(=O)c1ccc(Nc2ncc3c(n2)N(C2CCCC2)CC(F)(F)C(=O)N3C)c(C(F)(F)F)c1 [Example I-209, 4-(9-cyclopentyl-7,7-difluoro-5-methyl-6-oxo-6,7,8,9-tetrahydro-5H-pyrimido[4,5-b][1,4]diazepin-2-ylamino)-N-(3-dimethylamino-propyl)-3-trifluoromethyl-benzamide] was tested, and the IC50 was 1 to 50 nM.

Same assay, conditions: GST-PLK1, GST-p53 substrate, ATP

COc1cc(C(=O)NCCCN2CCN(CCO)CC2)ccc1Nc1ncc2c(n1)N(C1CCCC1)CC(F)(F)C(=O)N2C [Example I-96, 4-(9-cyclopentyl-7,7-difluoro-5-methyl-6-oxo-6,7,8,9-tetrahydro-5H-pyrimido[4,5-b][1,4]diazepin-2-ylamino)-N-{3-[4-(2-hydroxy-ethyl)-piperazin-1-yl]-propyl}-3-methoxy-benzamide] and COc1cc(C(=O)NCCCN2CCNCC2)ccc1Nc1ncc2c(n1)N(C1CCCC1)CC(F)(F)C(=O)N2C [Example I-95, 4-(9-cyclopentyl-7,7-difluoro-5-methyl-6-oxo-6,7,8,9-tetrahydro-5H-pyrimido[4,5-b][1,4]diazepin-2-ylamino)-3-methoxy-N-(3-piperazin-1-yl-propyl)-benzamide] fall in the same range of IC50: 1 to 50 nM for the first, 1 to 50 nM for the second.

COCCNC(=O)c1ccc(Nc2ncc3c(n2)N(C2CCCC2)CC(F)(F)C(=O)N3C)c(OC)c1 [Example I-28, 4-(9-cyclopentyl-7,7-difluoro-5-methyl-6-oxo-6,7,8,9-tetrahydro-5H-pyrimido[4,5-b][1,4]diazepin-2-ylamino)-3-methoxy-N-(2-methoxy-ethyl)-benzamide] and COc1cc(C(=O)NC(C)C)ccc1Nc1ncc2c(n1)N(C1CCCC1)CC(F)(F)C(=O)N2C [Example I-25, 4-(9-cyclopentyl-7,7-difluoro-5-methyl-6-oxo-6,7,8,9-tetrahydro-5H-pyrimido[4,5-b][1,4]diazepin-2-ylamino)-N-isopropyl-3-methoxy-benzamide] fall in the same range of IC50: 1 to 50 nM for the first, 1 to 50 nM for the second.

COc1cc(C(=O)NCc2ccccn2)ccc1Nc1ncc2c(n1)N(C1CCCC1)CC(F)(F)C(=O)N2C [Example I-109, 4-(9-cyclopentyl-7,7-difluoro-5-methyl-6-oxo-6,7,8,9-tetrahydro-5H-pyrimido[4,5-b][1,4]diazepin-2-ylamino)-3-methoxy-N-pyridin-2-ylmethyl-benzamide] and COc1cc(C(=O)NCc2ccoc2)ccc1Nc1ncc2c(n1)N(C1CCCC1)CC(F)(F)C(=O)N2C [Example I-34, 4-(9-cyclopentyl-7,7-difluoro-5-methyl-6-oxo-6,7,8,9-tetrahydro-5H-pyrimido[4,5-b][1,4]diazepin-2-ylamino)-N-furan-3-ylmethyl-3-methoxy-benzamide] fall in the same range of IC50: 1 to 50 nM for the first, 1 to 50 nM for the second.

Compared with COc1cc(C(=O)Nc2cccnc2)ccc1Nc1ncc2c(n1)N(C1CCCC1)CC(F)(F)C(=O)N2C [Example I-130, 4-(9-cyclopentyl-7,7-difluoro-5-methyl-6-oxo-6,7,8,9-tetrahydro-5H-pyrimido[4,5-b][1,4]diazepin-2-ylamino)-3-methoxy-N-pyridin-3-yl-benzamide], COc1cc(C(=O)Nc2ccccc2)ccc1Nc1ncc2c(n1)N(C1CCCC1)CC(F)(F)C(=O)N2C [Example I-38, 4-(9-cyclopentyl-7,7-difluoro-5-methyl-6-oxo-6,7,8,9-tetrahydro-5H-pyrimido[4,5-b][1,4]diazepin-2-ylamino)-3-methoxy-N-phenyl-benzamide] is higher in IC50: 1 to 50 nM for the first, 51 to 500 nM for the second.

COc1cc(C(=O)N[C@@H]2CN3CCC2CC3)ccc1Nc1ncc2c(n1)N(C1CCCC1)CC(F)(F)C(=O)N2C [Example I-107, N—(S)-1-aza-bicyclo[2.2.2]oct-3-yl-4-(9-cyclopentyl-7,7-difluoro-5-methyl-6-oxo-6,7,8,9-tetrahydro-5H-pyrimido[4,5-b][1,4]diazepin-2-ylamino)-3-methoxy-benzamide] and COc1cc(C(=O)NCc2cc(Cl)cc(Cl)c2)ccc1Nc1ncc2c(n1)N(C1CCCC1)CC(F)(F)C(=O)N2C [Example I-42, 4-(9-cyclopentyl-7,7-difluoro-5-methyl-6-oxo-6,7,8,9-tetrahydro-5H-pyrimido[4,5-b][1,4]diazepin-2-ylamino)-N-(3,5-dichloro-benzyl)-3-methoxy-benzamide] fall in the same range of IC50: 1 to 50 nM for the first, 1 to 50 nM for the second.

With COc1cc(C(=O)NCCNc2ccccc2)ccc1Nc1ncc2c(n1)N(C1CCCC1)CC(F)(F)C(=O)N2C [Example I-119, 4-(9-cyclopentyl-7,7-difluoro-5-methyl-6-oxo-6,7,8,9-tetrahydro-5H-pyrimido[4,5-b][1,4]diazepin-2-ylamino)-3-methoxy-N-(2-phenylamino-ethyl)-benzamide] the IC50 was 51 to 500 nM.
